# Reference: article PMC6104039 (Nature Communications, 2018)
# Values joined by “and” are separate entries in the source; they are usually repeats but may differ in a detail not shown here. Identical values can stand only once. “Also recorded” adds a separate entry of the source.
# Tests used:
# [1] = biological target: recombinant human sphingosine kinase 1 (Homo sapiens, UniProt Q9NYA1); conditions: 10 μM
# Protocol: Sphingosine kinase assays were performed using fluorescent NBD-dihydrosphingosine[63],[64]. […] Reactions were stopped with 100 μL methanol, and 5 μL amounts were resolved on Silica Gel 60 thin layer chromatography (TLC) plates using butanol:acetic acid:water (3:1:1). The fluorescent NBD-dihydrosphingosine 1-phosphate band was quantified using a BioRad ChemiDoc imaging system with excitation by UV light.
# Supplementary Figure 2. […] Activity of recombinant
# human sphingosine kinases 1 and 2 (SphK1 and 2) was assessed in the presence of 10 µM
# Activity is expressed as a percentage of the vehicle control.
# gastrocnemius muscle = test: Targeted analysis of ceramide, SM and HexCer in gastrocnemius muscle; format: in vivo, mice; design: HexCer 18:1/22:0 content of gastrocnemius muscle / SM 34:1 content of gastrocnemius muscle / SM 34:2 content of gastrocnemius muscle / SM 36:2 content of gastrocnemius muscle / SM 36:1 content of gastrocnemius muscle / SM 40:1 content of gastrocnemius muscle / SM 42:2 content of gastrocnemius muscle / SM 42:1 content of gastrocnemius muscle / Cer 18:1/16:0 content of gastrocnemius muscle / Cer 18:1/18:0 content of gastrocnemius muscle / Cer 18:2/18:0 content of gastrocnemius muscle / Cer 18:0/18:0 content of gastrocnemius muscle / Cer 18:1/22:0 content of gastrocnemius muscle / Cer 18:1/24:1 content of gastrocnemius muscle / Cer 18:0/24:1 content of gastrocnemius muscle / Cer 18:1/24:0 content of gastrocnemius muscle / HexCer 18:1/16:0 content of gastrocnemius muscle / HexCer 18:1/18:0 content of gastrocnemius muscle / HexCer 18:1/20:0 content of gastrocnemius muscle: unit not given beside the values
# [2] = system: cultured primary myotubes; test: Ceramide content of cultured primary myotubes; format: cell-based, murine; conditions: 1 μM
# Description: myotubes would go a long way in making the muscle component of this work more […]
# Response: We agree with the reviewer that experiments in muscle cells often allow additional mechanistic studies to be undertaken. We investigated this possibility in immortalised and primary […]
# where C18:0 ceramide is by the far the dominant ceramide species, cultured muscle cells contain much higher levels of other ceramides, particularly C16:0 (see figure below). This divergence in ceramide profile between cultured myotubes and muscle tissue in vivo has been reported by other […]
# C18:0 ceramide content in cultured primary myotubes by ~30% (P = 0.02), whilst having no […]
# profile of skeletal muscle, CerS1 inhibition experiments with myotubes would have limited translatability to the in vivo setting.
# (1 picture or pasted object on this page, not shown here)
# Sequence of recombinant human sphingosine kinase 1 (Q9NYA1 whole entry): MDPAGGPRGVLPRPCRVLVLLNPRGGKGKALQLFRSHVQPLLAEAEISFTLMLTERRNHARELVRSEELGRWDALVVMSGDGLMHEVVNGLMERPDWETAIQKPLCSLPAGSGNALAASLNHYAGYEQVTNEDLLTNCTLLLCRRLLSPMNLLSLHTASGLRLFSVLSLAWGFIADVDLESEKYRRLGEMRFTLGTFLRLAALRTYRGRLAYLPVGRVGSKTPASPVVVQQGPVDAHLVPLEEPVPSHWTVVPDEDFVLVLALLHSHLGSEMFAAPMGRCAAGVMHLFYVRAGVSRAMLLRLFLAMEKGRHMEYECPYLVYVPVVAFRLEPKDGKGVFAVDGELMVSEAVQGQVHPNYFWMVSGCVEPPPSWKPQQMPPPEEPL
compound,measurement,setting,value
"C[C@@](N)(CO)CCc1ccc(OCc2ccc(Cl)c(Cl)c2)cc1 [P053, (S)-2-amino-4-(4-(3,4-dichlorobenzyloxy)phenyl)-2-methylbutan-1-ol]",reduction in sphingosine kinase 1 activity,[1],did not inhibit; also recorded: does not inhibit; also recorded: no inhibitory activity
same,"C18 ceramide, C18 dihydroceramide and 18:2/18:0 ceramide in gastrocnemius muscle",gastrocnemius muscle; 5 mg/kg daily,significant reductions
same,Cer 18:0/18:0 content of gastrocnemius muscle,"gastrocnemius muscle; Chow + P053, individual mice",6.716 and 7.477 and 5.961 and 6.052 and 7.077 and 6.063 and 5.232 and 5.747 and 5.304 and 6.401
same,Cer 18:0/24:1 content of gastrocnemius muscle,"gastrocnemius muscle; Chow + P053, individual mice",3.2091 and 2.598 and 3.667 and 1.8279 and 1.954 and 2.772 and 2.055 and 2.027 and 2.139 and 3.699
same,Cer 18:1/16:0 content of gastrocnemius muscle,"gastrocnemius muscle; Chow + P053, individual mice",0.3484 and 0.3091 and 0.3437 and 0.3068 and 0.4605 and 0.637 and 0.2188 and 0.4293 and 0.2277 and 0.4584
same,Cer 18:1/18:0 content of gastrocnemius muscle,"gastrocnemius muscle; Chow + P053, individual mice",20.203 and 22.2043 and 20.4893 and 19.2549 and 21.0178 and 15.4813 and 13.2288 and 14.0008 and 17.6182 and 17.1195
same,Cer 18:1/20:0 content of gastrocnemius muscle,"gastrocnemius muscle; Chow + P053, individual mice",0.4999 and 0.7758 and 0.6909 and 0.4845 and 0.671 and 0.9486 and 0.5576 and 0.508 and 0.7146 and 0.7451
same,Cer 18:1/22:0 content of gastrocnemius muscle,"gastrocnemius muscle; Chow + P053, individual mice",2.697 and 2.247 and 2.924 and 2.061 and 2.474 and 3.27 and 1.828 and 2.047 and 1.902 and 3.1173
same,Cer 18:1/24:0 content of gastrocnemius muscle,"gastrocnemius muscle; Chow + P053, individual mice",7.198 and 5.637 and 7.43 and 4.359 and 4.709 and 6.914 and 4.421 and 4.245 and 5.265 and 6.526
same,Cer 18:1/24:1 content of gastrocnemius muscle,"gastrocnemius muscle; Chow + P053, individual mice",11.8242 and 9.129 and 9.681 and 7.066 and 8.758 and 11.6384 and 7.885 and 7.128 and 7.643 and 10.6448
same,Cer 18:2/18:0 content of gastrocnemius muscle,"gastrocnemius muscle; Chow + P053, individual mice",0.4658 and 0.5512 and 0.4225 and 0.4514 and 0.5661 and 0.3835 and 0.2283 and 0.4455 and 0.4165 and 0.4597
same,HexCer 18:1/16:0 content of gastrocnemius muscle,"gastrocnemius muscle; Chow + P053, individual mice",0.2006 and 0.1094 and 0.05472 and 0.08462 and 0.1035 and 0.3016 and 0.02008 and 0.2899 and 0.1794 and 0.1526
same,HexCer 18:1/18:0 content of gastrocnemius muscle,"gastrocnemius muscle; Chow + P053, individual mice",2.77 and 1.138 and 0.685 and 0.5505 and 1.7658 and 1.01 and 1.02 and 3.397 and 2.789 and 0.3088
same,HexCer 18:1/20:0 content of gastrocnemius muscle,"gastrocnemius muscle; Chow + P053, individual mice",4.98 and 2.2562 and 1.185 and 0.63 and 2.136 and 1.46 and 2.186 and 5.934 and 4.2225 and 0.5191
same,HexCer 18:1/22:0 content of gastrocnemius muscle,"gastrocnemius muscle; Chow + P053, individual mice",28.6994 and 10.5255 and 7.341 and 3.05 and 12.9786 and 10.4072 and 8.903 and 30.0855 and 20.1916 and 3.513
same,HexCer 18:1/22:1 content of gastrocnemius muscle,"gastrocnemius muscle; Chow + P053, individual mice",2.443 and 0.8441 and 0.5964 and 0.2415 and 0.9642 and 0.3777 and 0.6547 and 2.558 and 1.9817 and 0.2068
same,HexCer 18:1/24:0 content of gastrocnemius muscle,"gastrocnemius muscle; Chow + P053, individual mice",131.55 and 47.7053 and 35.5956 and 20.727 and 57.5213 and 45.8559 and 36.9456 and 110.769 and 86.5459 and 16.7978
same,HexCer 18:1/24:1 content of gastrocnemius muscle,"gastrocnemius muscle; Chow + P053, individual mice",55.5818 and 22.7923 and 17.8764 and 8.062 and 22.9046 and 20.0825 and 17.0776 and 61.9168 and 40.6919 and 8.475
same,SM 34:1 content of gastrocnemius muscle,"gastrocnemius muscle; Chow + P053, individual mice",55.2092 and 65.2319 and 37.406 and 53.6606 and 49.036 and 73.0423 and 41.7651 and 81.6186 and 53.5156 and 54.7372
same,SM 34:2 content of gastrocnemius muscle,"gastrocnemius muscle; Chow + P053, individual mice",2.561 and 2.363 and 1.4133 and 1.332 and 1.809 and 2.655 and 1.68 and 2.4957 and 1.926 and 1.425
same,SM 36:1 content of gastrocnemius muscle,"gastrocnemius muscle; Chow + P053, individual mice",242.303 and 230.3 and 206.587 and 243.389 and 210.049 and 199.927 and 174.992 and 270.736 and 215.295 and 156.154
same,SM 36:2 content of gastrocnemius muscle,"gastrocnemius muscle; Chow + P053, individual mice",3.724 and 3.017 and 3.098 and 3.4 and 2.856 and 3.2428 and 2.648 and 4.315 and 4.019 and 3.053
same,SM 40:1 content of gastrocnemius muscle,"gastrocnemius muscle; Chow + P053, individual mice",97.5537 and 51.1596 and 53.7207 and 21.6057 and 37.8369 and 48.3173 and 39.3705 and 88.0525 and 69.3339 and 48.817
same,SM 42:1 content of gastrocnemius muscle,"gastrocnemius muscle; Chow + P053, individual mice",88.2897 and 52.3856 and 29.1894 and 16.6817 and 42.3452 and 43.7529 and 25.0289 and 89.171 and 54.8125 and 29.4411
same,SM 42:2 content of gastrocnemius muscle,"gastrocnemius muscle; Chow + P053, individual mice",288.299 and 175.495 and 168.331 and 87.7791 and 166.49 and 221.175 and 113.727 and 338.716 and 212.277 and 185.512
same,Cer 18:0/18:0 content of gastrocnemius muscle,"gastrocnemius muscle; HFD + P053, individual mice",6.696 (2×) and 6.991 and 7.614 and 9.306 and 10.4442 and 6.363 and 5.154 and 5.258 and 4.509
same,Cer 18:0/24:1 content of gastrocnemius muscle,"gastrocnemius muscle; HFD + P053, individual mice",4.519 and 1.914 and 1.715 and 1.673 and 2.381 and 12.1481 and 1.438 and 1.998 and 3.6 and 0.9202
same,Cer 18:1/16:0 content of gastrocnemius muscle,"gastrocnemius muscle; HFD + P053, individual mice",0.2953 and 0.2425 and 0.247 and 0.3667 and 0.6053 and 1.286 and 0.3154 and 0.1867 and 0.2439 and 0.2642
same,Cer 18:1/18:0 content of gastrocnemius muscle,"gastrocnemius muscle; HFD + P053, individual mice",21.9657 and 17.6562 and 21.0561 and 17.8475 and 19.1897 and 17.6974 and 13.2972 and 14.5082 and 22.6242 and 9.617
same,Cer 18:1/20:0 content of gastrocnemius muscle,"gastrocnemius muscle; HFD + P053, individual mice",1.3 and 0.9773 and 1.039 and 0.7088 and 1.3618 and 1.151 and 0.5199 and 0.8084 and 1.045 and 0.6734
same,Cer 18:1/22:0 content of gastrocnemius muscle,"gastrocnemius muscle; HFD + P053, individual mice",6.663 and 2.886 and 2.627 and 3.138 and 3.9433 and 5.15 and 2.442 and 3.877 and 4.12 and 2.291
same,Cer 18:1/24:0 content of gastrocnemius muscle,"gastrocnemius muscle; HFD + P053, individual mice",8.75 and 4.723 and 4.013 and 4.317 and 4.82 and 10.8999 and 3.077 and 4.318 and 7.266 and 2.309
same,Cer 18:1/24:1 content of gastrocnemius muscle,"gastrocnemius muscle; HFD + P053, individual mice",11.3105 and 7.675 and 5.851 and 7.272 and 9.129 and 11.5338 and 5.462 and 9.029 and 11.0555 and 5.753
same,Cer 18:2/18:0 content of gastrocnemius muscle,"gastrocnemius muscle; HFD + P053, individual mice",0.4484 and 0.4926 and 0.3634 and 0.4132 and 0.2765 and 0.3608 and 0.2849 and 0.2673 and 0.3042 and 0.2757
same,HexCer 18:1/16:0 content of gastrocnemius muscle,"gastrocnemius muscle; HFD + P053, individual mice",0.07083 and 0.2298 and 0.1257 and 0.1094 and 0.2809 and 0.09552 and 0.04859 and 0.09042 and 0.2927 and 0.128
same,HexCer 18:1/18:0 content of gastrocnemius muscle,"gastrocnemius muscle; HFD + P053, individual mice",0.6278 and 2.316 and 1.725 and 1.053 and 1.514 and 0.3784 and 1.339 and 1.2334 and 3.411 and 0.7622
same,HexCer 18:1/20:0 content of gastrocnemius muscle,"gastrocnemius muscle; HFD + P053, individual mice",1.025 and 3.657 and 4.193 and 2.559 and 2.728 and 0.775 and 2.303 and 1.6216 and 6.493 and 1.535
same,HexCer 18:1/22:0 content of gastrocnemius muscle,"gastrocnemius muscle; HFD + P053, individual mice",7.522 and 16.4106 and 20.0443 and 14.4231 and 12.9484 and 5.248 and 12.5609 and 13.236 and 35.9679 and 8.484
same,HexCer 18:1/22:1 content of gastrocnemius muscle,"gastrocnemius muscle; HFD + P053, individual mice",0.5466 and 1.486 and 1.3 and 1.291 and 1.104 and 0.193 and 0.8615 and 0.6275 and 2.662 and 0.7906
same,HexCer 18:1/24:0 content of gastrocnemius muscle,"gastrocnemius muscle; HFD + P053, individual mice",35.0734 and 65.2406 and 70.8422 and 52.1762 and 47.7217 and 19.7676 and 40.4927 and 43.8786 and 131.229 and 26.1187
same,HexCer 18:1/24:1 content of gastrocnemius muscle,"gastrocnemius muscle; HFD + P053, individual mice",11.8966 and 34.458 and 33.6892 and 26.2534 and 24.7881 and 7.796 and 20.5958 and 23.2933 and 61.9739 and 13.7499
same,SM 34:1 content of gastrocnemius muscle,"gastrocnemius muscle; HFD + P053, individual mice",32.5351 and 75.4148 and 64.2595 and 68.4699 and 74.2315 and 69.3058 and 56.8022 and 63.1231 and 40.9981 and 91.0819
same,SM 34:2 content of gastrocnemius muscle,"gastrocnemius muscle; HFD + P053, individual mice",1.53 and 2.835 and 1.998 and 2 and 2.418 and 2.144 and 2.133 and 2.338 and 2.209 and 2.34
same,SM 36:1 content of gastrocnemius muscle,"gastrocnemius muscle; HFD + P053, individual mice",125.344 and 223.512 and 246.64 and 236.8 and 200.399 and 135.056 and 273.936 and 199.397 and 141.624 and 291.891
same,SM 36:2 content of gastrocnemius muscle,"gastrocnemius muscle; HFD + P053, individual mice",1.77 and 3.547 and 2.905 and 2.734 and 5.421 and 3.741 and 3.767 and 2.494 and 1.973 and 4.895
same,SM 40:1 content of gastrocnemius muscle,"gastrocnemius muscle; HFD + P053, individual mice",74.9293 and 89.7182 and 104.131 and 44.9676 and 58.8143 and 74.268 and 90.7758 and 60.0553 and 174.22 and 68.0463
same,SM 42:1 content of gastrocnemius muscle,"gastrocnemius muscle; HFD + P053, individual mice",42.7745 and 43.392 and 45.2063 and 34.368 and 60.6982 and 34.7124 and 28.1104 and 34.3376 and 109.833 and 16.1089
same,SM 42:2 content of gastrocnemius muscle,"gastrocnemius muscle; HFD + P053, individual mice",124.791 and 220.201 and 175.989 and 144.772 and 171.488 and 135.796 and 111.009 and 132.926 and 406.752 and 102.287
same,reduction of C18:0 ceramide content,[2],~ 30%
